Reference: PubChem BioAssay (NCI)
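Method: 48-hour compound exposure of cells in 96-well plates, five concentrations, linear interpolation of endpoints. The concentration for 50% growth inhibition is given as GI50. Definition used: TGI = concentration required for complete inhibition of growth.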

Tests used:
Test in all cases: growth of human tumour cells (NCI), 48 h
M14 melanoma = system: M14 melanoma
SW-620 colon = system: SW-620 colon
MDA-MB-231 breast = system: MDA-MB-231 breast
HS 578T breast = system: HS 578T breast
HOP-62 NSCLC = system: HOP-62 NSCLC
OVCAR-5 ovarian = system: OVCAR-5 ovarian
CCRF-CEM leukemia = system: CCRF-CEM leukemia
UACC-257 melanoma = system: UACC-257 melanoma
OVCAR-4 ovarian = system: OVCAR-4 ovarian
SF-539 CNS = system: SF-539 CNS
PC-3 prostate = system: PC-3 prostate
NCI-H226 lung = system: NCI-H226 lung
MALME-3M melanoma = system: MALME-3M melanoma
K-562 leukemia = system: K-562 leukemia
KM12 colon = system: KM12 colon
EKVX NSCLC = system: EKVX NSCLC
ACHN renal = system: ACHN renal
SK-MEL-5 melanoma = system: SK-MEL-5 melanoma
COLO 205 colon = system: COLO 205 colon
SF-268 CNS = system: SF-268 CNS
RPMI-8226 leukemia = system: RPMI-8226 leukemia
A498 renal = system: A498 renal
MDA-MB-468 breast = system: MDA-MB-468 breast
HCT-15 colon = system: HCT-15 colon
DU-145 prostate = system: DU-145 prostate
SNB-19 CNS = system: SNB-19 CNS
CAKI-1 renal = system: CAKI-1 renal
MCF7 breast = system: MCF7 breast
T-47D breast = system: T-47D breast
HCC-2998 colon = system: HCC-2998 colon
SF-295 CNS = system: SF-295 CNS
NCI-H522 lung = system: NCI-H522 lung
OVCAR-8 ovarian = system: OVCAR-8 ovarian
LOX IMVI melanoma = system: LOX IMVI melanoma
SR leukemia = system: SR leukemia
HCT-116 colon = system: HCT-116 colon
MOLT-4 leukemia = system: MOLT-4 leukemia
SNB-75 CNS = system: SNB-75 CNS
UO-31 renal = system: UO-31 renal
MDA-MB-435 = system: MDA-MB-435
UACC-62 melanoma = system: UACC-62 melanoma
U251 CNS = system: U251 CNS
NCI-H23 lung = system: NCI-H23 lung
NCI-H460 lung = system: NCI-H460 lung
BT-549 breast = system: BT-549 breast
SK-MEL-28 melanoma = system: SK-MEL-28 melanoma
SK-OV-3 ovarian = system: SK-OV-3 ovarian
IGROV1 ovarian = system: IGROV1 ovarian
SK-MEL-2 melanoma = system: SK-MEL-2 melanoma
A549 NSCLC = system: A549 NSCLC
SN12C renal = system: SN12C renal
RXF 393 renal = system: RXF 393 renal
HT29 colon = system: HT29 colon
786-0 renal = system: 786-0 renal
HOP-92 NSCLC = system: HOP-92 NSCLC
OVCAR-3 ovarian = system: OVCAR-3 ovarian
TK-10 renal = system: TK-10 renal
HL-60(TB) leukemia = system: HL-60(TB) leukemia

Structure (SMILES): CC1CCCCN1CCCNC(=O)N/C(N)=N/c1nc2ccccc2s1 (stereo unspecified)
- GI50 (M14 melanoma): 15.8 µM
- TGI (M14 melanoma): 30.5 µM
- GI50 (SW-620 colon): 16.2 µM
- TGI (SW-620 colon): 34.1 µM
- GI50 (MDA-MB-231 breast): 14.8 µM
- TGI (MDA-MB-231 breast): 40.7 µM
- GI50 (HS 578T breast): 15.1 µM
- TGI (HS 578T breast): 50.1 µM
- GI50 (HOP-62 NSCLC): 21.3 µM
- TGI (HOP-62 NSCLC): > 100 µM
- GI50 (OVCAR-5 ovarian): 22.5 µM
- TGI (OVCAR-5 ovarian): 68.5 µM
- GI50 (CCRF-CEM leukemia): 19.6 µM
- TGI (CCRF-CEM leukemia): 57.8 µM
- GI50 (UACC-257 melanoma): 15.8 µM
- TGI (UACC-257 melanoma): 30.7 µM
- GI50 (OVCAR-4 ovarian): 63.1 µM
- TGI (OVCAR-4 ovarian): > 100 µM
- GI50 (SF-539 CNS): 15.8 µM
- TGI (SF-539 CNS): 30.1 µM
- GI50 (PC-3 prostate): 20 µM
- TGI (PC-3 prostate): > 100 µM
- GI50 (NCI-H226 lung): 27.7 µM
- TGI (NCI-H226 lung): > 100 µM
- GI50 (MALME-3M melanoma): 13.9 µM
- TGI (MALME-3M melanoma): 27.1 µM
- GI50 (K-562 leukemia): 15.8 µM
- TGI (K-562 leukemia): 46.7 µM
- GI50 (KM12 colon): 27 µM
- TGI (KM12 colon): > 100 µM
- GI50 (EKVX NSCLC): 27.9 µM
- TGI (EKVX NSCLC): > 100 µM
- GI50 (ACHN renal): 19.1 µM
- TGI (ACHN renal): 48.1 µM
- GI50 (SK-MEL-5 melanoma): 13.3 µM
- TGI (SK-MEL-5 melanoma): 26.2 µM
- GI50 (COLO 205 colon): 14 µM
- TGI (COLO 205 colon): 28.2 µM
- GI50 (SF-268 CNS): 21.1 µM
- TGI (SF-268 CNS): 79.8 µM
- GI50 (RPMI-8226 leukemia): 17.4 µM
- TGI (RPMI-8226 leukemia): 51.3 µM
- GI50 (A498 renal): 17 µM
- TGI (A498 renal): 38.2 µM
- GI50 (MDA-MB-468 breast): 14.7 µM
- TGI (MDA-MB-468 breast): 30.7 µM
- GI50 (HCT-15 colon): 16.4 µM
- TGI (HCT-15 colon): 33.4 µM
- GI50 (DU-145 prostate): 46.7 µM
- TGI (DU-145 prostate): > 100 µM
- GI50 (SNB-19 CNS): 29.7 µM
- TGI (SNB-19 CNS): > 100 µM
- GI50 (CAKI-1 renal): 13.3 µM
- TGI (CAKI-1 renal): 28 µM
- GI50 (MCF7 breast): 15 µM
- TGI (MCF7 breast): 31.7 µM
- GI50 (T-47D breast): 15.4 µM
- TGI (T-47D breast): 39.6 µM
- GI50 (HCC-2998 colon): 15.2 µM
- TGI (HCC-2998 colon): 29.2 µM
- GI50 (SF-295 CNS): 16 µM
- TGI (SF-295 CNS): 30.7 µM
- GI50 (NCI-H522 lung): 18.3 µM
- TGI (NCI-H522 lung): 43.8 µM
- GI50 (OVCAR-8 ovarian): 27.5 µM
- TGI (OVCAR-8 ovarian): > 100 µM
- GI50 (LOX IMVI melanoma): 13.9 µM
- TGI (LOX IMVI melanoma): 27.7 µM
- GI50 (SR leukemia): 18.7 µM
- TGI (SR leukemia): 58.5 µM
- GI50 (HCT-116 colon): 15 µM
- TGI (HCT-116 colon): 28.9 µM
- GI50 (MOLT-4 leukemia): 12.1 µM
- TGI (MOLT-4 leukemia): 51.9 µM
- GI50 (SNB-75 CNS): 7.4 µM
- TGI (SNB-75 CNS): 55.2 µM
- GI50 (UO-31 renal): 10.2 µM
- TGI (UO-31 renal): 25.2 µM
- GI50 (MDA-MB-435): 16.2 µM
- TGI (MDA-MB-435): 30.2 µM
- GI50 (UACC-62 melanoma): 16.8 µM
- TGI (UACC-62 melanoma): 31.7 µM
- GI50 (U251 CNS): 17 µM
- TGI (U251 CNS): 39.3 µM
- GI50 (NCI-H23 lung): 27 µM
- TGI (NCI-H23 lung): > 100 µM
- GI50 (NCI-H460 lung): 19.1 µM
- TGI (NCI-H460 lung): 40.6 µM
- GI50 (BT-549 breast): 16.5 µM
- TGI (BT-549 breast): 59.3 µM
- GI50 (SK-MEL-28 melanoma): 16.6 µM
- TGI (SK-MEL-28 melanoma): 30.5 µM
- GI50 (SK-OV-3 ovarian): 19.7 µM
- TGI (SK-OV-3 ovarian): 89.1 µM
- GI50 (IGROV1 ovarian): 21.3 µM
- TGI (IGROV1 ovarian): 76.7 µM
- GI50 (SK-MEL-2 melanoma): 16 µM
- TGI (SK-MEL-2 melanoma): 31.1 µM
- GI50 (A549 NSCLC): 21 µM
- TGI (A549 NSCLC): 57.7 µM
- GI50 (SN12C renal): 36.7 µM
- TGI (SN12C renal): > 100 µM
- GI50 (RXF 393 renal): 10.2 µM
- TGI (RXF 393 renal): 33.3 µM
- GI50 (HT29 colon): 15.3 µM
- TGI (HT29 colon): 46.2 µM
- GI50 (786-0 renal): 17.2 µM
- TGI (786-0 renal): 32.7 µM
- GI50 (HOP-92 NSCLC): 4.96 µM
- TGI (HOP-92 NSCLC): 41.6 µM
- GI50 (OVCAR-3 ovarian): 24 µM
- TGI (OVCAR-3 ovarian): > 100 µM
- GI50 (TK-10 renal): 20.8 µM
- TGI (TK-10 renal): 46 µM
- GI50 (HL-60(TB) leukemia): 11.5 µM
- TGI (HL-60(TB) leukemia): 33.8 µM
